Consider 15 compounds from patent US10493125B2 (Merck Sharp & Dohme Corp., priority 2015, dated 2019).

In one assay the target is T1, human GCGR (Homo sapiens, UniProt P47871).
T1 construct: expressed in transfected cells
Nature of the assay: cAMP activity assay (HitHunter cAMP XS), cells expressing human GCGR. In kind it is cell-based. The conditions noted are these: for EC50: read-out: EC50 hGCGR; for Ratio: EC50 hGCGR divided by EC50 hGLP1. How it is done:
(§1) Peptides were dissolved in 100% DMSO and serially diluted to generate 10 point titrations. The peptide solutions were then transferred into 384-well assay plates (150 nL/well). Assay ready frozen cells expressing human GLP1R or human GCGR were suspended in growth media consisting of DMEM medium (GIBCO), 10% FBS (GIBCO), 1×NEAA(GIBCO), 1× P/S (GIBCO), 10 ug/ml Blasticidin (GIBCO) and 200 μg/mL Hygromycin (GIBCO). […] The cell suspensions (15 μL) were then added to the assay plates containing the peptide solutions (30,000 cells/well for human GCGR; 10,000 cells/well for human GLP1R). The cells were incubated for 1 hour at room temperature in the dark. Production of cAMP was determined using HitHunter™ cAMPXS kits (DiscoverX) following manufacturer protocol. The plates were incubated for overnight at room temperature in the dark. Luminescence was measured using an EnVision Multilabel plate reader (Perkin Elmer). […] EC50 values were calculated using uses a 4 parameter logistic fit based on the Levenberg-Marquardt algorithm.

A further assay deals with T2, human GLP1R (Homo sapiens, UniProt P43220).
T2 construct: expressed in transfected cells
T2 sequence (P43220 24-463): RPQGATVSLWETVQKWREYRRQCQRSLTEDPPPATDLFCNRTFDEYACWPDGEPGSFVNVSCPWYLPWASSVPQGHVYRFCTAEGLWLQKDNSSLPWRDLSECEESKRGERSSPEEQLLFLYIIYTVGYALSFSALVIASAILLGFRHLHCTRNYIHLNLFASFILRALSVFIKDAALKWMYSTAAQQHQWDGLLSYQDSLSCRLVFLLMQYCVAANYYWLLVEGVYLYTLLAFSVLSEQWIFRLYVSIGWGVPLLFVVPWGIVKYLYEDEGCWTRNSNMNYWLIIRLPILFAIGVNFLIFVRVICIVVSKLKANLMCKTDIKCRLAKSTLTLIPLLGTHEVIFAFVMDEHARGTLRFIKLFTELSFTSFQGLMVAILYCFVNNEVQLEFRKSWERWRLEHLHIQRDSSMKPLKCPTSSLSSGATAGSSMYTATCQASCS
Briefly: cAMP activity assay (HitHunter cAMP XS), cells expressing human GLP1R. In kind it is cell-based. On the procedure: as §1

Setting [1] is: Table 2, cAMP production, read-out: EC50 hGLP1R.
Setting [2] is: Table 7, lipidated analogs vs parental peptides.
The mark [3] stands for this setting: Table 7, lipidated analogs vs parental peptides, read-out: EC50 hGLP1.

Read-outs that look alike come from different tables or passages of the source. Starred links: 1 amine or outer side, 2 acyl side, 3 side chain; linkers in the order of their positions; H or OH if unused. Non-standard residues stand in square brackets, D forms with d. Residues, ends and D or L forms follow the SMILES beside them. Groups on a side chain read outwards from the residue. No end group written: not given here. *: point of attachment. γGlu = O=C(O)[C@H](CCC(=O)[*:2])N[*:1]; Palmitoyl = CCCCCCCCCCCCCCCC(=O)*

T1 sequence (P47871 26-477): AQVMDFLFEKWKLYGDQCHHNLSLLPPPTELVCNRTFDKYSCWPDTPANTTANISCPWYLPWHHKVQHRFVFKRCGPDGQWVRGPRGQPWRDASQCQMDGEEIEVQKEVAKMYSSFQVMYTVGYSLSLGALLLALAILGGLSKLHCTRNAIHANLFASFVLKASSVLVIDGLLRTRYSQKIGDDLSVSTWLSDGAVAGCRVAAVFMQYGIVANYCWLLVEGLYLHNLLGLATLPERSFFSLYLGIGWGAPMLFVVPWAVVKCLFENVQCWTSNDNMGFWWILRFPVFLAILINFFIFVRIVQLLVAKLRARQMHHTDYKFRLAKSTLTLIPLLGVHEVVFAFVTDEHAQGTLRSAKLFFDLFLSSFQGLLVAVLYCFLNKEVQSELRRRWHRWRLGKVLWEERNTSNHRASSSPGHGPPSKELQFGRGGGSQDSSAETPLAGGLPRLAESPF

In the case of `CC(C)C[C@H](NC(=O)[C@H](CC(C)C)NC(=O)[C@H](Cc1c[nH]c2ccccc12)NC(=O)[C@H](CCC(N)=O)NC(=O)[C@@H](NC(=O)[C@H](Cc1ccccc1)NC(=O)[C@H](CC(=O)O)NC(=O)[C@H](CCC(N)=O)NC(=O)[C@H](C)NC(=O)[C@H](CCCNC(=N)N)NC(=O)[C@H](CCCNC(=N)N)NC(=O)[C@H](CO)NC(=O)[C@H](CC(=O)O)NC(=O)[C@H](CC(C)C)NC(=O)[C@H](Cc1ccc(O)cc1)NC(=O)[C@H](CCCCN)NC(=O)[C@H](CO)NC(=O)[C@H](Cc1ccc(O)cc1)NC(=O)[C@H](CC(=O)O)NC(=O)[C@H](CO)NC(=O)[C@@H](NC(=O)[C@H](Cc1ccccc1)NC(=O)[C@@H](NC(=O)CNC(=O)[C@H](CCC(N)=O)NC(=O)[C@H](CO)NC(=O)[C@@H](N)Cc1c[nH]cn1)[C@@H](C)O)[C@@H](C)O)C(C)C)C(=O)N[C@@H](CC(N)=O)C(=O)N[C@@H](CCC(N)=O)C(N)=O` [PD57], the EC50 on human GCGR (Table 2, cAMP production) worked out at 0.02 nM; at human GLP1R (setting [1]) it was 0.01 nM.
The like results for `CC(C)C[C@H](NC(=O)[C@H](CC(C)C)NC(=O)[C@H](Cc1c[nH]c2ccccc12)NC(=O)[C@H](CCC(N)=O)NC(=O)[C@@H](NC(=O)[C@H](Cc1ccccc1)NC(=O)[C@H](CC(=O)O)NC(=O)[C@H](CCC(N)=O)NC(=O)[C@H](C)NC(=O)[C@H](CCCNC(=N)N)NC(=O)[C@H](CCCNC(=N)N)NC(=O)[C@H](CO)NC(=O)[C@H](CC(=O)O)NC(=O)[C@H](CC(C)C)NC(=O)[C@H](Cc1ccc(O)cc1)NC(=O)[C@H](CCCCN)NC(=O)[C@H](CO)NC(=O)[C@H](Cc1ccc(O)cc1)NC(=O)[C@H](CC(=O)O)NC(=O)[C@H](CO)NC(=O)[C@@H](NC(=O)[C@H](Cc1ccccc1)NC(=O)[C@@H](NC(=O)CNC(=O)[C@H](CCC(N)=O)NC(=O)[C@H](CO)NC(=O)[C@@H](N)Cc1c[nH]cn1)[C@@H](C)O)[C@@H](C)O)C(C)C)C(=O)N[C@@H](CC(=O)O)C(=O)N[C@@H](CO)C(N)=O` [PD59] were, in that order, 0.02 nM and 0.01 nM.
On to `CCCCCCCCCCCCCCCC(=O)N[C@@H](CCC(=O)N[C@@H](CCC(=O)NCCCC[C@H](NC(=O)[C@H](CC(=O)O)NC(=O)[C@H](CO)NC(=O)[C@@H](NC(=O)[C@H](Cc1ccccc1)NC(=O)[C@@H](NC(=O)CNC(=O)[C@H](CCC(N)=O)NC(=O)[C@@H](CO)NC(=O)[C@@H](N)Cc1c[nH]cn1)[C@@H](C)O)[C@@H](C)O)C(=O)N[C@@H](CO)C(=O)N[C@@H](CCCCN)C(=O)N[C@@H](Cc1ccc(O)cc1)C(=O)N[C@@H](CC(C)C)C(=O)N[C@@H](CC(=O)O)C(=O)N[C@@H](CC(N)=O)C(=O)N[C@@H](CCCCN)C(=O)N[C@@H](CCCNC(=N)N)C(=O)N[C@@H](C)C(=O)N[C@@H](CCC(N)=O)C(=O)N[C@@H](CC(=O)O)C(=O)N[C@@H](Cc1ccccc1)C(=O)N[C@H](C(=O)N[C@@H](CCC(N)=O)C(=O)N[C@@H](Cc1c[nH]c2ccccc12)C(=O)N[C@@H](CC(C)C)C(=O)N[C@@H](CCSC)C(=O)N[C@@H](CCC(N)=O)C(=O)N[C@H](C(N)=O)[C@@H](C)O)C(C)C)C(=O)O)C(=O)O` [TP534] (H-H[dS]QGTFTSDK([γGlu-γGlu-Palmitoyl])SKYLDNKRAQDFVQWLMQT-NH2; N-terminus assumed), for which the Ratio on human GCGR (Table 7) is recorded as 0.5. Moreover, the EC50 amounted to 0.01 nM at human GCGR (setting [2]) and 0.02 nM at human GLP1R (setting [3]).
For `CCCCCCCCCCCCCCCC(=O)N[C@@H](CCC(=O)N[C@@H](CCC(=O)NCCCC[C@H](NC(=O)[C@H](CC(=O)O)NC(=O)[C@H](CO)NC(=O)[C@@H](NC(=O)[C@H](Cc1ccccc1)NC(=O)[C@@H](NC(=O)CNC(=O)[C@H](CCC(N)=O)NC(=O)[C@@H](CO)NC(=O)[C@@H](N)Cc1c[nH]cn1)[C@@H](C)O)[C@@H](C)O)C(=O)N[C@@H](CO)C(=O)N[C@@H](CCCCN)C(=O)N[C@@H](Cc1ccc(O)cc1)C(=O)N[C@@H](CC(C)C)C(=O)N[C@@H](CC(=O)O)C(=O)N[C@@H](CO)C(=O)N[C@@H](CCCNC(=N)N)C(=O)N[C@@H](CCCNC(=N)N)C(=O)N[C@@H](C)C(=O)N[C@@H](Cc1c[nH]cn1)C(=O)N[C@@H](CC(=O)O)C(=O)N[C@@H](Cc1ccccc1)C(=O)N[C@H](C(=O)N[C@@H](CCC(N)=O)C(=O)N[C@@H](Cc1c[nH]c2ccccc12)C(=O)N[C@@H](CC(C)C)C(=O)N[C@@H](CC(C)C)C(=O)N[C@@H](CC(N)=O)C(=O)N[C@H](C(N)=O)[C@@H](C)O)C(C)C)C(=O)O)C(=O)O` [TP535] (H-H[dS]QGTFTSDK([γGlu-γGlu-Palmitoyl])SKYLDSRRAHDFVQWLLNT-NH2; N-terminus assumed), in that order: 0.4, 0.02 nM and 0.05 nM.
The like results for `CC(C)C[C@H](NC(=O)[C@H](CC(C)C)NC(=O)[C@H](CCCCN)NC(=O)[C@H](CO)NC(=O)[C@H](Cc1ccc(O)cc1)NC(=O)[C@H](CC(=O)O)NC(=O)[C@H](CO)NC(=O)[C@H](CC(C)C)NC(=O)[C@H](Cc1ccccc1)NC(=O)[C@@H](NC(=O)CNC(=O)[C@H](CCC(N)=O)NC(=O)[C@@H](CO)NC(=O)[C@@H](N)Cc1c[nH]cn1)[C@@H](C)O)C(=O)N[C@@H](CC(=O)O)C(=O)N[C@@H](CO)C(=O)N[C@@H](CCCNC(=N)N)C(=O)N[C@@H](C)C(=O)N[C@@H](C)C(=O)N[C@@H](CCC(N)=O)C(=O)N[C@@H](CC(=O)O)C(=O)N[C@@H](Cc1ccccc1)C(=O)N[C@H](C(=O)N[C@@H](CCC(N)=O)C(=O)N[C@@H](Cc1c[nH]c2ccccc12)C(=O)N[C@@H](CC(C)C)C(=O)N[C@@H](CC(C)C)C(=O)N[C@@H](CCC(N)=O)C(=O)N[C@H](C(N)=O)[C@@H](C)O)C(C)C` [TP552] (H-H[dS]QGTFLSDYSKLLDSRAAQDFVQWLLQT-NH2; N-terminus assumed) were, in that order, 0.004, 0.02 nM and at least 5 nM.
Regarding `CCCCCCCCCCCCCCCC(=O)N[C@@H](CCC(=O)N[C@@H](CCC(=O)NCCCC[C@H](NC(=O)[C@H](CC(=O)O)NC(=O)[C@H](CO)NC(=O)[C@@H](NC(=O)[C@H](Cc1ccccc1)NC(=O)[C@@H](NC(=O)CNC(=O)[C@H](CCC(N)=O)NC(=O)[C@@H](CO)NC(=O)[C@@H](N)Cc1c[nH]cn1)[C@@H](C)O)[C@@H](C)O)C(=O)N[C@@H](CO)C(=O)N[C@@H](CCCCN)C(=O)N[C@@H](Cc1ccc(O)cc1)C(=O)N[C@@H](CC(C)C)C(=O)N[C@@H](CC(=O)O)C(=O)N[C@@H](C)C(=O)N[C@@H](CCCNC(=N)N)C(=O)N[C@@H](C)C(=O)N[C@@H](C)C(=O)N[C@@H](Cc1c[nH]cn1)C(=O)N[C@@H](CC(=O)O)C(=O)N[C@@H](Cc1ccccc1)C(=O)N[C@H](C(=O)N[C@@H](CCC(N)=O)C(=O)N[C@@H](Cc1c[nH]c2ccccc12)C(=O)N[C@@H](CC(C)C)C(=O)N[C@@H](CC(C)C)C(=O)N[C@@H](CC(N)=O)C(=O)N[C@H](C(N)=O)[C@@H](C)O)C(C)C)C(=O)O)C(=O)O` [TP559] (H-H[dS]QGTFTSDK([γGlu-γGlu-Palmitoyl])SKYLDARAAHDFVQWLLNT-NH2), the Ratio at human GCGR (Table 7) is on record as 0.4. Moreover, the EC50 on human GCGR (setting [2]) was 0.02 nM; on human GLP1R (setting [3]) it was 0.05 nM.
For the compound “H-HSQGIFFSDYSKYLDSRRAQDFVQWLMNT-NH2 [PD52]”, the EC50 on human GCGR (Table 2, cAMP production) was found to be 0.03 nM; at human GLP1R (setting [1]), 0.02 nM.
Regarding “H-HSQGTFFSDYSKYLDSRRAQDFVQWLLET-NH2 [PD58]”, the EC50 came to 0.03 nM on human GCGR (Table 2, cAMP production) and 0.02 nM on human GLP1R (setting [1]).
For “H-HSQGTFTSDYSKYLDSIRAQDFVQWLMDT-NH2 [PD36]”, in that order: 0.04 nM and 0.06 nM.
For “H-HSQGTFTSDYSKYLDSLMAQDFVQWLMST-NH2 [PD22]”, in that order: 0.02 nM and 0.03 nM.
As to “H-HSQGTFTSDYSKYLDSRRAHDFVQWLLNT-NH2 [PD29]”, the EC50 on human GCGR (Table 2, cAMP production) worked out at 0.02 nM; at human GLP1R (setting [1]), 0.02 nM. Further, the Ratio at human GCGR (Table 7) is listed as 1.
With “HSQGTFTSDYSKYLDELRAYDFVQWLMNT-NH2 [PD27]”, the EC50 at human GCGR (Table 2, cAMP production) was 0.05 nM; at human GLP1R (setting [1]), 0.03 nM.
Consider “HSQGTFTSDYSKYLDNKRAQDFVQWLMQT-NH2 [PD37]”, for which the Ratio at human GCGR (Table 7) is recorded as 3.2. In addition, the figures for the EC50 at human GCGR (setting [2]) and on human GLP1R (setting [3]) were 0.16 nM and 0.05 nM, respectively.
Turning to “HSQGTFTSDYSKYLDSKRAHDFVQWLLNT-NH2 [PD45]”, the EC50 is 0.03 nM at human GCGR (Table 2, cAMP production) and 0.02 nM on human GLP1R (setting [1]).
The like results for “HSQGTFTSDYSKYLDSRMAYDFVQWLMNT-NH2 [PD56]” were, in that order, 0.08 nM and 0.05 nM.
